The source made the active and inactive calls.
What was measured:
[1] = target: T1, Aminopeptidase N (Plasmodium falciparum FcB1/Columbia, UniProt O96935); experiment: malaria alanyl aminopeptidase activity blockers – biochemical, fluorogenic H-Leu-NHMec substrate, 1536-well (AID 1445); set-up: species or system Plasmodium falciparum 3D7, 3D7
T1 sequence (O96935 whole entry): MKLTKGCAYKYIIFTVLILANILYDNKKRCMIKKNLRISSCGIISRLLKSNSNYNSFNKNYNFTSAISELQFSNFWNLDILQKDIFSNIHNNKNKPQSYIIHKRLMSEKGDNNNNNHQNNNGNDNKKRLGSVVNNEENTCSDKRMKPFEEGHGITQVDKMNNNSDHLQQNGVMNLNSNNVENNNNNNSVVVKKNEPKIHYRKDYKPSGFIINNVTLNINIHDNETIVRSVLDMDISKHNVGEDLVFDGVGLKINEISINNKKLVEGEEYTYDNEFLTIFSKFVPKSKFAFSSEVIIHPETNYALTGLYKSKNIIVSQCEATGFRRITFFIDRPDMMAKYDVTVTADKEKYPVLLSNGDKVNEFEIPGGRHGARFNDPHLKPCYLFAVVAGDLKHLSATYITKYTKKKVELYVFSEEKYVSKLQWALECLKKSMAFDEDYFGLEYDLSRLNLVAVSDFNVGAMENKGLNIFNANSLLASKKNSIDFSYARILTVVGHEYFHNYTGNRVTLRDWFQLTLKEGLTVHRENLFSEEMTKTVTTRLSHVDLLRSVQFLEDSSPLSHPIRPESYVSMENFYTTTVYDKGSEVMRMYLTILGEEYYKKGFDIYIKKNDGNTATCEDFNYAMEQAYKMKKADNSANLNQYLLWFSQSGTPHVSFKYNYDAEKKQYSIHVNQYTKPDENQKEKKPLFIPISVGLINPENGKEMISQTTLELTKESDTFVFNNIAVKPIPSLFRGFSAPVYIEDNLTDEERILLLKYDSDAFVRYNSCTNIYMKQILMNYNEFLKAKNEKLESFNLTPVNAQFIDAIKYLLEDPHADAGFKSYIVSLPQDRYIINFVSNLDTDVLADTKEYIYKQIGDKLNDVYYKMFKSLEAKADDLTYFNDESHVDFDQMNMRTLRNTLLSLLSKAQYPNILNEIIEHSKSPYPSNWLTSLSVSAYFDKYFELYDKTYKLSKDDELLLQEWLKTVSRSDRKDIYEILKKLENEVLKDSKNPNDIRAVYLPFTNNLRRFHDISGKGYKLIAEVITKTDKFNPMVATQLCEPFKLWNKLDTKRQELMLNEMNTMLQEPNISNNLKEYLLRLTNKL

[2] = target: Cysteine protease ATG4B (Homo sapiens, UniProt Q9Y4P1); type: functional;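 note: Fluorescence-based dose-response confirmation assay measuring inhibition of ATG4B activity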
[3] = target: Phospholipase A2 (Homo sapiens, UniProt P04054); type: functional;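 note: confirmatory dose-response counterscreen on phospholipase A2, testing hits that came from an ultra-high-throughput screen for ATG4B inhibitors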
[4] = target: T2, RNA-binding protein pos-1 (Caenorhabditis elegans, UniProt G5EF15); experiment: disruptors of C. elegans POS-1 RNA interaction – biochemical, fluorescence polarization, dose response (AID 1964);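 note: purified POS-1 fused to maltose binding protein made in E. coli; potency of compounds blocking POS-1 binding to fluorescent RNA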
T2 sequence (G5EF15 whole entry): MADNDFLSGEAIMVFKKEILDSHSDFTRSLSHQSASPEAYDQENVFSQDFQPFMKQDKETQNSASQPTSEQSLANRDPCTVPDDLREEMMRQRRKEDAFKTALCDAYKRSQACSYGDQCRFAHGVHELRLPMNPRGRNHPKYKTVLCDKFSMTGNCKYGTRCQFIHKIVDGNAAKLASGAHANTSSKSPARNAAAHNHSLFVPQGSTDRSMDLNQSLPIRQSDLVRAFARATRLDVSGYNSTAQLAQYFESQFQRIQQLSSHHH

[5] = target: T3, Zinc finger protein mex-5 (Caenorhabditis elegans, UniProt Q9XUB2); experiment: potency of MEX-5 RNA-binding blockers – biochemical, C. elegans, fluorescence polarization, dose response (AID 1960)
T3 sequence (Q9XUB2 whole entry): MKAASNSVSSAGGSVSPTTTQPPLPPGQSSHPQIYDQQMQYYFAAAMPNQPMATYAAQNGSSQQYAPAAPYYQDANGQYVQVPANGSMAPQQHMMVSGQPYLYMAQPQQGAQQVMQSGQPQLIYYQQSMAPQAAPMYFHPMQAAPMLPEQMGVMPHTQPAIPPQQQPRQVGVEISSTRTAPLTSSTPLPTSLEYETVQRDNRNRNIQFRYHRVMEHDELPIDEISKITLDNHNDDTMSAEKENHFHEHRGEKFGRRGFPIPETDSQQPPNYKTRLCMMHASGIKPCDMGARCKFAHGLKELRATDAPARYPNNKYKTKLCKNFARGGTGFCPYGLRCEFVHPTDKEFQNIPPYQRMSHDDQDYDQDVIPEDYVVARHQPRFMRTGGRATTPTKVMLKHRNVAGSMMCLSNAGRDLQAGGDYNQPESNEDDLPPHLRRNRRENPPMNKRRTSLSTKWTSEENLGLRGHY

[6] = HEK-293T cell viability reduction – luminescence, B-cell screen hits, cytotoxicity control for BCR NF-kB inhibitor project, dose response (AID 489021); type: functional, cell-based;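 note: HEK-293T cells carrying an NF-kB luciferase reporter; cells exposed to compound for about 14 hours before viability readout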
[7] = target: T4, Endoribonuclease toxin MazF (Escherichia coli K-12, UniProt P0AE70); experiment: activation of MazEF endoribonuclease cleavage – biochemical, fluorescence, single-stranded RNA substrate, uHTS hits, dose response (AID 588481); type: functional
T4 sequence (P0AE70 whole entry): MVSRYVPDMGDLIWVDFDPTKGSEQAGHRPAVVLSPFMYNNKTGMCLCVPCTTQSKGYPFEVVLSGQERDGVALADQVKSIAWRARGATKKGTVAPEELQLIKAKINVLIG

[8] = target: T4, Endoribonuclease toxin MazF; experiment: substrate-only fluorescence increase artefacts – biochemical, single-stranded RNase substrate, counter-screen for MazEF activator project, dose response (AID 588502); type: functional
[9] = target: T5, Sentrin-specific protease 8 (Homo sapiens, UniProt Q96LD8); experiment: inhibition of human SENP8 cleavage activity – biochemical, luminescence, SAR follow-up (AID 504501); type: functional
T5 sequence (Q96LD8 whole entry): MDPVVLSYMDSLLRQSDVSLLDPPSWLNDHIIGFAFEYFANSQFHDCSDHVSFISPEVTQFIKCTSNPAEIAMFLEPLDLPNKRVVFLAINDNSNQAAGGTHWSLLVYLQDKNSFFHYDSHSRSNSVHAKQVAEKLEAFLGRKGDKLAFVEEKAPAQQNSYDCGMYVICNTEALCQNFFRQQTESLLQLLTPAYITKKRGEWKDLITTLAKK

[10] = target: T6, Caspase-3 (Homo sapiens, UniProt P42574); experiment: SAR Analysis of small molecule inhibitors of Sentrin-specific proteases (SENPs) using a Caspase-3 Selectivity assay. [Related pubchem assays (depositor defined):AID2540, AID2599, AID434973, AID489001]; type: functional
T6 sequence (P42574 whole entry): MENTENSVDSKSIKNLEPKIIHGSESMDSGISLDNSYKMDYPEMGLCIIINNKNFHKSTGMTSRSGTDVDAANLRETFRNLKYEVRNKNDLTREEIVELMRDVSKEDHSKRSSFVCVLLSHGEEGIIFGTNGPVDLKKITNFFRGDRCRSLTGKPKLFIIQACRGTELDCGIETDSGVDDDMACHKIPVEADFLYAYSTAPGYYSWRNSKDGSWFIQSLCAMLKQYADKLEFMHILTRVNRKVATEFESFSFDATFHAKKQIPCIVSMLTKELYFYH

[11] = target: T7, Sentrin-specific protease 6 (Homo sapiens, UniProt Q9GZR1); experiment: SAR Analysis of small molecule inhibitors of Sentrin-specific protease 6 (SENP6) using a Luminescent assay. [Related pubchem assays (depositor defined):AID2582, AID2599]; type: functional
T7 sequence (Q9GZR1 whole entry): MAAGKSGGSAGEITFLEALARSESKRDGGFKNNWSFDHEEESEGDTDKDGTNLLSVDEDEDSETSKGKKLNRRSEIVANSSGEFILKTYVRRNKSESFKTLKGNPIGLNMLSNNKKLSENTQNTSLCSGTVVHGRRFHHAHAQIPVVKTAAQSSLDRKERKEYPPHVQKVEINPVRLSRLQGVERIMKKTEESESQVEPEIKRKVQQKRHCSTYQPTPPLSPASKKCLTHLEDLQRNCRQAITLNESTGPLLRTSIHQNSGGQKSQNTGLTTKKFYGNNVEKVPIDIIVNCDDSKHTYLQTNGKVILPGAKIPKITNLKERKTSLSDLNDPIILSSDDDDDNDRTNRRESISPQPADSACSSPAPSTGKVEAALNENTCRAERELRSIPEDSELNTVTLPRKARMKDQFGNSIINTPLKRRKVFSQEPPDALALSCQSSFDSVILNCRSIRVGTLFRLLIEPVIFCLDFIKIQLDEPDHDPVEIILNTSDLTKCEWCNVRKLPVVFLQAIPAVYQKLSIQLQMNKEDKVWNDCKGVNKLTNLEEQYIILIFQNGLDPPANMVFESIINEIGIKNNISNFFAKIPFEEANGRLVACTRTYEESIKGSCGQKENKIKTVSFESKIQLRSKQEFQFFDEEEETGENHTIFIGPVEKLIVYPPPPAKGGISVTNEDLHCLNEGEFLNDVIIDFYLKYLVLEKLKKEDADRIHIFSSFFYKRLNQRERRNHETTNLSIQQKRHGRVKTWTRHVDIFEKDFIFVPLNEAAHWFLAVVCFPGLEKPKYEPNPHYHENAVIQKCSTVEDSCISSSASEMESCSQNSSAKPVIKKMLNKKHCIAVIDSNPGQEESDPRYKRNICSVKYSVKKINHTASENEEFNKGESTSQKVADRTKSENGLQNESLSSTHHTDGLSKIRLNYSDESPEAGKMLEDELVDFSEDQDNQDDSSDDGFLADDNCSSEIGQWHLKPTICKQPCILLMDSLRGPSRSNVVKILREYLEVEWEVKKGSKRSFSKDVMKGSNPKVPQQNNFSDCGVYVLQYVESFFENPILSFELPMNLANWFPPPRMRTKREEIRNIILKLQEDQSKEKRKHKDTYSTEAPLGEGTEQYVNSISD

[12] = target: T8, Sentrin-specific protease 7 (Homo sapiens, UniProt Q9BQF6); experiment: inhibition of human SENP7 cleavage activity – biochemical, luminescence, SAR follow-up (AID 504497); type: functional
T8 sequence (Q9BQF6 whole entry): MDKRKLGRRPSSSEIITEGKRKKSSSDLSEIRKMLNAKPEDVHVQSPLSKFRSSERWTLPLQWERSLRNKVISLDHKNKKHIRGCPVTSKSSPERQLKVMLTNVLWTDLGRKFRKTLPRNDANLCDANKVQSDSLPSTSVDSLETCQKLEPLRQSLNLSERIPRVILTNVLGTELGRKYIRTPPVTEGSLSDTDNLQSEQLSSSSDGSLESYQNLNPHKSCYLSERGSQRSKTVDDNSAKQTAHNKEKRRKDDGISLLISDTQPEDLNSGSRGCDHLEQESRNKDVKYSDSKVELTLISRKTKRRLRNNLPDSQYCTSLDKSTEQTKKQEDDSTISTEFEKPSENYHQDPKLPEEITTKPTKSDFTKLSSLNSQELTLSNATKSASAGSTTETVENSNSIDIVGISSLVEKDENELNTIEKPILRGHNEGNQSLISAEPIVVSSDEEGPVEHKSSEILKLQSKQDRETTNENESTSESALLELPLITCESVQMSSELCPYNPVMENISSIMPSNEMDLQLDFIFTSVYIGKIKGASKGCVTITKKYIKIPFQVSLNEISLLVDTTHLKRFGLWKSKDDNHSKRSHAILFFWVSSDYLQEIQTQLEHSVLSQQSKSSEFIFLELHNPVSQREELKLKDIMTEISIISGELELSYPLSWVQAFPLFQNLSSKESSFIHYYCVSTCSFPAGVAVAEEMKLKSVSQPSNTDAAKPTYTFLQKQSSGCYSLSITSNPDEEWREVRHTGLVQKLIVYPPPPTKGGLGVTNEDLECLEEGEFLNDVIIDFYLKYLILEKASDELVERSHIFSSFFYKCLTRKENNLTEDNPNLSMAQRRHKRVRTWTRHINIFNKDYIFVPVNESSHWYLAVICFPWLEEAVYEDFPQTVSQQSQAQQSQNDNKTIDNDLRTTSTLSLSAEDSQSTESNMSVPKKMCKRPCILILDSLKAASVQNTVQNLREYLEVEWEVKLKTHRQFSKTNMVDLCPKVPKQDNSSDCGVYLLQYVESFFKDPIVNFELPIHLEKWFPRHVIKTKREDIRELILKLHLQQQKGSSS

[13] = target: T6, Caspase-3; type: functional
[14] = target: T8, Sentrin-specific protease 7; type: functional
[15] = target: T7, Sentrin-specific protease 6; type: functional
[16] = target: FAD-linked sulfhydryl oxidase ALR (Homo sapiens, UniProt P55789); experiment: ALR-catalysed DTT oxidation blockers – biochemical, H2O2 detection, luminescence, cherry-pick, dose response (AID 493248)
[17] = target: T5, Sentrin-specific protease 8; type: functional

Sequence of Cysteine protease ATG4B (Q9Y4P1 whole entry): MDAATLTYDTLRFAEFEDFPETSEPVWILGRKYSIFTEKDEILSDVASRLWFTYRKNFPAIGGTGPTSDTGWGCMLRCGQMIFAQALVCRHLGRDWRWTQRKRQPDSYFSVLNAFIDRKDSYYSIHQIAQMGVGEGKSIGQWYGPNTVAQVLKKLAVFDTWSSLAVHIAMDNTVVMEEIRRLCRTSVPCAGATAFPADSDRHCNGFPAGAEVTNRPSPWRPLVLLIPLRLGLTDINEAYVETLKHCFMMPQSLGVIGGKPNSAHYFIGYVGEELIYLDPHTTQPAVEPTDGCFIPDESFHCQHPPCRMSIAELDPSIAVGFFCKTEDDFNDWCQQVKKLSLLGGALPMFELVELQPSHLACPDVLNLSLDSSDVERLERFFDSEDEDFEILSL
Sequence of FAD-linked sulfhydryl oxidase ALR (P55789 whole entry): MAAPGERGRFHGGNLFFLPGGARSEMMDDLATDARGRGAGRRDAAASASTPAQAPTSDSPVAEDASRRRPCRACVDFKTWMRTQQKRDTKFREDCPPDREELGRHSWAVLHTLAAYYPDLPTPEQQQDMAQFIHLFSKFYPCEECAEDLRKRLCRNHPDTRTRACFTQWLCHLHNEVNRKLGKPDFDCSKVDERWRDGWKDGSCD
Sequence of Phospholipase A2 (P04054 whole entry, the tested form may be a part): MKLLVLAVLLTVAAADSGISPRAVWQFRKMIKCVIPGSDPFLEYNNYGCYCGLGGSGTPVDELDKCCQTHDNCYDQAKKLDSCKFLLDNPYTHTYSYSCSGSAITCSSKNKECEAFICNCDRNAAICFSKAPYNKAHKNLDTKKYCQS

COc1cc(/C=C/C(=O)O)cc(S(=O)(=O)Nc2cc(Cl)c(Cl)cc2Cl)c1OC
IC50 [1]: 94.2 µM (active) | IC50 [2]: 6.7 µM (active) | IC50 [3]: 34.1 µM (inactive)

COc1ccccc1/C=C1/SC(=S)N(CCC(=O)Nc2cccnc2)C1=O
EC50 [4]: 69.2 µM (active) | EC50 [5]: 37.6 µM (inconclusive) | IC50 [6]: > 80 µM (inactive) | EC50 [7]: 52 µM (inactive) | EC50 [8]: > 99 µM (inactive)

Cc1cccc(CN2C(=O)N/C(=C/c3ccc(C)s3)C2=O)c1
EC50 [4]: 27.5 µM (active) | EC50 [5]: > 300 µM (inconclusive) | EC50 [7]: > 99 µM (inactive) | EC50 [8]: 87.8 µM (inactive)

O=[N+]([O-])c1ccc(/N=C/c2c[nH]c3ccccc23)cc1
IC50 [9]: > 99 µM (inactive) | IC50 [10]: > 99 µM (inactive) | IC50 [11]: > 99 µM (inactive) | IC50 [12]: > 99 µM (inactive)

C/C(=N/O)c1ccc2ccc3ccccc3c2c1
IC50 [13]: 38 µM (active) | IC50 [14]: 9.17 µM (active) | IC50 [15]: 16.7 µM (active) | AC50 [16]: 5.54 µM (active) | IC50 [17]: 21.6 µM (active)

— ChEMBL document CHEMBL1201862, “PubChem BioAssay data set” (2004)
